The subject of experiment [1] is crabgrass. The experiment in a line: field-grown crabgrass treated with CO2 prototype with insulating cone, percent control. The format is in vivo. The settings on record: for % control: insulated prototype, 0.15 lbs CO2. How it is done: (§1) Greenhouse-grown crabgrass plants were treated with the prototype containing either an 8002 flat fan nozzle (which was measured to release 2 pounds of CO2 per minute) or with an 8004 flat fan nozzle (which releases 4 pounds of CO2 per minute), to determine if the rate of application affects the percent control achieved. Control means killing or death of the plants as determined by visual observation. The percent control is a visual rating of the treated plant compared to an untreated control plant. In other words, it is the percent of plant death. Trials were conducted in triplicate.
(§2) Most commercial herbicides achieve 80% control or better. The prototype used 2 pounds of CO2 to achieve this level of control for one 6″ plant. At the 2 lb/plant dispensing rate, a commercial 25-lb cylinder of CO2 would only treat 10 plants; clearly efficiency increases were needed to create a viable backpack sprayer system. An insulating cone was attached around the nozzle with the expectation of possibly achieving a modest increase in efficiency, perhaps cutting the CO2 requirement by 20-50%.
Unexpectedly, a greater than ten-fold reduction in the CO2 usage was achieved (Table 1). The results are especially remarkable since field-grown plants (treated with the insulated design) are usually harder to kill than greenhouse-grown plants that were treated with the non-insulated design.

In experiment [2] the test system is large crabgrass. The experiment in a line: greenhouse-grown crabgrass treated with non-insulated CO2 prototype, visual percent control. The format is in vivo. The settings on record: for % control: 2 lbs CO2; for percent control: 2-3 tiller greenhouse-grown, seven days after treatment (FIG. 2). How it is done: as §1
Similarly, treatment for 15 seconds with the 2 lb/min nozzle results in 17 percent control with 0.5 pounds of CO2 dispensed, while treatment with the 4 lb/min nozzle for 5 seconds results in 12 percent control with 0.3 pounds of CO2 dispensed. From this study, it was concluded that for crabgrass, the total amount (dose) of CO2 applied correlates with % control. See FIG. 4, which graphs % control vs. CO2 dose with two different application rates.
In the data presented in FIG. 3, the crabgrass plants are larger. They are at the 3-4 tiller stage, whereas the plants in the data presented in FIG. 2 were 2-3 tiller plants. The CO2 application controlled both plant sizes well, and with the larger plants the same trend of percent control corresponding to the total pounds of CO2 applied was observed. In both cases the LD50 is over 1 pound CO2/plant.
as §2

Take `O=C=O` [CO2, carbon dioxide]: the “% control” value is reported as 80+ % in experiment [1] (2-3 tiller field); not below 80% in experiment [1] (2-3 tiller field, listed as carbon dioxide); 80+ % in experiment [1] (3-4 tiller field); not below 80% in experiment [1] (3-4 tiller field, listed as carbon dioxide); 75% in experiment [2] (2-3 tiller greenhouse, non-insulated prototype); 87% in experiment [2] (3-4 tiller greenhouse, non-insulated prototype). In addition, the results for the “LD50 (lethal dose to 50% of plants)” value in experiment [1] (with insulated cone) and in experiment [2] (without insulated cone) were “less than 0.2 lbs/CO2 per plant” and 2 pounds of CO2 per plant, respectively. Moreover, the LD50 result is recorded as “over 1 pound CO2/plant” in experiment [2] (2-3 tiller plants, non-insulated prototype) and “over 1 pound CO2/plant” in experiment [2] (3-4 tiller plants, non-insulated prototype). Further, the percent control in experiment [2] (2 lb/min nozzle, 15 seconds, 0.5 pounds of CO2 dispensed) amounted to 17%; in experiment [2] (2 lb/min nozzle, 30 seconds, one pound of CO2 dispensed), 40%; in experiment [2] (4 lb/min nozzle, 5 seconds, 0.3 pounds of CO2 dispensed), 12%; in experiment [2] (4 lb/min nozzle, 15 seconds, one pound of CO2 dispensed), 42%. Further, the “amount of CO2 used to achieve 80% control or better” value in experiment [2] (non-insulated prototype, one 6″ plant) came to 2 pounds.

These data come from US8927459B2, “Vegetation treatment” (Arctic, Inc., priority 2008, dated 2015).
